This note sets out measurements from patent EP3042903B1, “Substituted hetero-bicyclic compounds, compositions and medicinal applications thereof” (Impetis Biosciences Ltd., priority 2015, dated 2016).

Structures are written as SMILES.

The test system of assay [1] is B cell activation as measured by CD69 expression in mouse splenocytes. Description: Inhibition of B cell activation as measured by CD69 expression in mouse splenocytes (flow cytometry). Type of assay: cell-based. To be noted: C57/BL6 splenocytes, 3 µg/mL goat anti-mouse IgM, 18-20 hours, CD69 +ve cells within CD19; read-out: IC50 (nM) in B cell activation assay in Mouse spleenocytes. The text has this: Inhibition of B cell activation as measured by CD69 expression in mouse splenocytes:
To test the effect of BTK inhibitors in suppressing B-cell receptor (BCR) mediated activation of B cells, we developed a flow cytometry based assay to analyze CD69 expression in B cell population among total splenocyte from the mouse. C57/BL6 mouse spleens were dissected out and splenocytes were isolated by mincing the tissue with a syringe plunger followed by RBC lysis (0.85% ammonium chloride, (Qualigens,Cat #21405) and several washes in PBS. Finally, cell were cultured in culture medium [RPMI medium (Sigma, Cat R6504) with 10% FBS (Gibco - Cat #10270).
Test compounds were diluted half log starting from 2 mM in 100% DMSO (Sigma, cat#D2650) (200X). 1x10^5 splenocytes were incubated with 1 µL of diluted test compounds in 200 µL culture medium in a U-bottom 96 well plate (Greiner) at 37°C with 5% CO2 for 30 minutes. Control wells received 1 µL of 100% DMSO without any compound. The cells were stimulated with 3 µg/mL goat anti-mouse IgM (Sigma, cat#M8644) and incubated for 18-20 hours. After the stimulation, cells were washed in cold PBS with 1% FBS and stained with 1:100 dilution of anti-CD69-PE (eBioscience, cat#12-0691-83) and anti-CD19-PE.Cy5 (eBioscience, cat#15-0193-83) for 1 hour on ice. Then the cells were washed 3 times with PBS with 1% FBS and analyzed by Guava Easycyte Mini flow cytometer system (Millipore). Flow cytometry data were analyzed using Weasel software (WEHI, Melbourne). B cells were gated using CD19 marker. Expression of CD69 was analyzed as percentage of CD69 +ve cells within CD19. Percent activity for each data point was calculated using following formula: [formula]
(§1) Percentage activity was fit using sigmoid dose response with variable slope logistic equation in GraphPad Prism 5 software to determine IC50.
Background: Flow cytometry measures light scatter and fluorescence of single cells or particles in a stream.

For assay [2], the target named is T1, Recombinant Human Bruton's tyrosine kinase (Btk) (Homo sapiens, UniProt Q06187).
T1 construct: Full length human BTK (hBTK, Genbank#NM_000061.2) was cloned into pFastBac-HTB vector; 6XHis (N); made in house; host or cells: Sf9 cells (Bac-to-Bac baculovirus expression system)
In words: Recombinant Human Bruton's tyrosine kinase (Btk) inhibition assay (HTRF KinEASE-TK). In kind it is biochemical. Conditions: 20 ng/ml rhBtk, 77 µM ATP (KM), 1 µM TK-Biotin Substrate, 90 minutes; read-out: IC50 (nM) in recombinant hBTK assay. As to the method:
Recombinant Human Bruton's tyrosine kinase (Btk) inhibition assay.
Full length human BTK (hBTK, Genbank#NM_000061.2) was cloned into pFastBac-HTB vector (Invitrogen, cat#10359-016). hBTK gene was expressed with N'-terminal 6XHis tag in Sf9 cells using Bac-to-Bac ^(R) Baculovirus expression system (Invitrogen, cat#10359-016) and the recombinant protein was purified by Ni-NTA method. The elution buffer for hBTK consisted of 50 mM Hepes pH 8.0, 300 mM NaCl, 10% glycerol, 1 mM dithiothreitol and 200 mM imidazole.
The inhibition assays were performed using the generic tyrosine kinase assay kit from Cis Bio (HTRF® KinEASE - TK™ # 62TK0PEB). The assay is based on the principle of fluorescence resonance energy transfer (FRET) between the Europium Cryptate labeled anti-phosphotyrosine antibody and streptavidin labeled fluorophore, XL-665. In an uninhibited kinase reaction the biotinylated peptide substrate (Tk-Biotin) gets phosphorylated at an intermediate tyrosine site which is captured by anti-phosphotyrosine antibody which eventually acts as a FRET donor. The streptavidin labeled XL-665 binds strongly to the Tk-Biotin substrate and act as a FRET acceptor. The resultant FRET signal is measured at 665 nm. A ratio of this specific fluorescence (665nm) to the background fluorescence (620nm), conferred by the free antibody, is directly proportional to the kinase activity.
The Btk inhibition assays were performed using 20 ng/ml of rhBtk in a final volume of 10µl reaction buffer containing 77 µM ATP and 1 µM TK-Biotin Substrate in 50 mM HEPES pH 7.0, 5mM MgCl2, 1mM DTT, 0.01% Tween 20 and 50nM SEB®; with a range of concentrations of the inhibitors. The kinase reaction was carried out at the KM of ATP (77 µM) as well as that of Tk-Biotin substrate (1 µM). After 90 minutes, the reaction was stopped by addition of SA-XL665 at a concentration of 62.5 nM in HTRF® detection buffer containing EDTA. Finally 5 µL of TK antibody-cryptate was added to the reaction and the plate was incubated for additional 60 minutes. The fluorescence was read using the FlexStation (Molecular Devices) with excitation at 340 nm and emissions at 620nm (for Cryptate) and 665nm (for FRET). A ratio of the 2 emissions was calculated for each well and expressed as follows: Specific signal = Ratio(Sample)−Ratio(Negative) [formula] Ratio = (665nm/620nm) × 10^4 [formula] Mean Ratio = ∑Ratio/3(triplicates) [formula]
For each data point, % inhibition is calculated based on uninhibited reaction which is considered as 100% activity over no enzyme or substrate controls. Dose response data is then fit using a four parameter logistic equation using GraphPad Prism 5 software to determine inhibition constant 50(IC50).
In general terms: TR-FRET usually uses a lanthanide donor and a delayed reading to cut background.

Assay [3] concerns B cell activation as measured by CD69 expression in Human whole blood. Description: Inhibition of B cell activation as measured by CD69 expression in Human whole blood (flow cytometry). In kind it is cell-based. To be noted: heparinized human whole blood, anti-IgD antibody 30 µg/mL, 4 hours, CD69 positive cells among CD20 B cells. As to the method: Inhibition of B cell activation as measured by CD69 expression in Human whole blood
To test the effect of BTK inhibitors in suppressing B-cell receptor (BCR) mediated activation of B cells, we developed a flow cytometry based assay to analyze CD69 expression in B cell population in human whole blood. Freshly collected heparinized human whole blood (60 µL/well) was dispensed in 96-well U bottom plate (Greiner), treated with the test compound at a concentrations ranging from 10 µM to 0.3 nM (half log dilutions). 0.5% DMSO (Sigma, cat#D2650) was used as vehicle control. The whole blood was incubated with compounds for 1 hour, followed by stimulation with anti-IgD antibody (Goat Anti-Human IgD Antibody - affinity purified, Bethyl laboratories, cat#A80-106A) at a final concentration of 30 µg/mL at 37°C and 5% CO2 for 4 hours. Subsequently, 45 µL blood was transferred to 1.5 ml microcentrifuge tubes and 1.2 µL of anti-CD20-PE.Cy5 (BD Biosciences, cat#561761)and 1.6 µL of anti-CD69-PE (eBioscience, cat#12-0691-83) antibody were added and mixed properly by gently tapping the tubes. Blood was stained for 20 minutes at room temperature (RT). After antibody incubation, 1 mL pre-warmed 1X Lyse/Fix solution (BD Biosciences, cat#558049) was added and cells were incubated at RT for 10 minutes. Then the tubes were centrifuged at 450xg for 5 minutes at RT and supernatant was removed. Pellet was disrupted by gentle tapping, cells were washed with 1 mL freshly prepared wash buffer and centrifuged at 450xg for 5 minutes at RT. Supernatant was removed completely before resuspending cells in 200 µl of wash buffer and proceeded for acquisition in Guava Easy Cyte Mini instrument. Acquisition was done with following laser settings: FSC Gain: X 16, FSC fine gain 100%, SSC: 893V, GRN: 663V, YLW: 649V, RED: 802V, Threshold Parameters Offset: FSC 0.73 V Threshold 300 units. The cells were diluted in such a way so that cell conc. should not exceed 500 cells/µL and at least 5000 cells were acquired. Viable lymphocytes were gated from the forward and side scatter profile of cells and B cells were sub-gated based on CD20-PE.Cy5 staining. Percent of CD69-PE positive cells were calculated among B lymphocyte sub-gate using Weasel software. Percent activity for each data point was calculated using following formula: [formula]
as §1

T1 sequence (Q06187 whole entry): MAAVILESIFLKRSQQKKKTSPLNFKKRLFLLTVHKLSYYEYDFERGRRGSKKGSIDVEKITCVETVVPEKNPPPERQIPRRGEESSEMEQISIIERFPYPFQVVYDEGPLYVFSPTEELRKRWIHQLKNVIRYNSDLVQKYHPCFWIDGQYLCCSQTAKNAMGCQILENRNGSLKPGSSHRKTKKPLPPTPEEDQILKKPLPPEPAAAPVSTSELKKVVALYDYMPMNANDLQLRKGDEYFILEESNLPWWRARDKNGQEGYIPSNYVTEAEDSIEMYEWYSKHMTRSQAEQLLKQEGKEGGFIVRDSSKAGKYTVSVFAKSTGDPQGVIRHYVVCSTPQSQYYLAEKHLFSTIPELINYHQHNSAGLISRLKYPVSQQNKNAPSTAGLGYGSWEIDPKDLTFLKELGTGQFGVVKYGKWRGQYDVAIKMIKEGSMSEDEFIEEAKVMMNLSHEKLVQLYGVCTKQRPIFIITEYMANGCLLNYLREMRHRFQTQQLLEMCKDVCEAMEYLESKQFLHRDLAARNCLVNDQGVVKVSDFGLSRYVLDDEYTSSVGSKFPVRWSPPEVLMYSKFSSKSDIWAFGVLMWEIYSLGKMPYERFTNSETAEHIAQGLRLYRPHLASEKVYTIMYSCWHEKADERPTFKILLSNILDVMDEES

`O=C1c2c(F)cc(C3CC3)cc2OCCN1c1cc(F)cc(-c2ccnc3[nH]c(C4=CCN(C5COC5)CC4)cc23)c1CO` [Example 8, 8-cyclopropyl-6-fluoro-4-[5-fluoro-2-(hydroxymethyl)-3-[2-[1-(oxetan-3-yl)-3,6-dihydro-2H-pyridin-4-yl]-1H-pyrrolo[2,3-b]pyridin-4-yl]phenyl]-2,3-dihydro-1,4-benzoxazepin-5-one]: the 50% inhibitory concentration (IC50) came out at 9 nM in assay [1], 1.3 nM in assay [2] and 124 nM in assay [3]. `O=C1c2c(F)cc(C3CC3)cc2OCCN1c1cc(F)cc(-c2ccnc3[nH]c(-c4ccc(CN5CCN(C6COC6)CC5)cn4)cc23)c1CO` [Example 1, 8-cyclopropyl-6-fluoro-4-[5-fluoro-2-(hydroxymethyl)-3-[2-[5-[[4-(oxetan-3-yl)piperazin-1-yl]methyl]-2-pyridyl]-1H-pyrrolo[2,3-b]pyridin-4-yl]phenyl]-2,3-dihydro-1,4-benzoxazepin-5-one]: the IC50 was found to be 2.7 nM in assay [1] and 16.5 nM in assay [3]. Regarding `O=C1c2c(F)cc(C3CC3)cc2OCCN1c1cc(F)cc(-c2ccnc3[nH]c(-c4ccc(OC5CCN(C6COC6)CC5)cn4)cc23)c1CO` [Example 11, 8-cyclopropyl-6-fluoro-4-[5-fluoro-2-(hydroxymethyl)-3-[2-[5-[[1-(oxetan-3-yl)-4-piperidyl]oxy]-2-pyridyl]-1H-pyrrolo[2,3-b]pyridin-4-yl]phenyl]-2,3-dihydro-1,4-benzoxazepin-5-one], the 50% inhibitory concentration (IC50) in assay [2] is 1.15 nM. With `O=C1c2c(F)cc(C3CC3)cc2OCCN1c1cc(F)cc(-c2ccnc3[nH]c(-c4ccc(CN5CCN(CC(F)(F)F)CC5)cn4)cc23)c1CO` [Example 2], the IC50 in assay [1] is 2.7 nM; in assay [2] it was 1.9 nM; in assay [3], 55.9 nM.

In the case of `C[C@@H]1CN(Cc2ccc(-c3cc4c(-c5cc(F)cc(N6CCOc7cc(C8CC8)cc(F)c7C6=O)c5CO)ccnc4[nH]3)nc2)CCN1CC(F)F` [Example 7, 8-cyclopropyl-4-[3-[2-[5-[[(3R)-4-(2,2-difluoroethyl)-3-methyl-piperazin-1-yl]methyl]-2-pyridyl]-1H-pyrrolo[2,3-b]pyridin-4-yl]-5-fluoro-2-(hydroxymethyl)phenyl]-6-fluoro-2,3-dihydro-1,4-benzoxazepin-5-one], in assay [2], the IC50 is 1.8 nM. `O=C1c2ccc(C3CC3)cc2OCCN1c1cc(F)cc(-c2ccnc3[nH]c(C4=CCN(C5COC5)CC4)cc23)c1CO` [Example 9, 8-cyclopropyl-4-[5-fluoro-2-(hydroxymethyl)-3-[2-[1-(oxetan-3-yl)-3,6-dihydro-2H-pyridin-4-yl]-1H-pyrrolo[2,3-b]pyridin-4-yl]phenyl]-2,3-dihydro-1,4-benzoxazepin-5-one]: the IC50 is 47 nM in assay [1] and 2.5 nM in assay [2].

In the case of `C[C@H]1CN(Cc2ccc(-c3cc4c(-c5cc(F)cc(N6CCOc7cc(C8CC8)cc(F)c7C6=O)c5CO)ccnc4[nH]3)nc2)CCN1CC(F)F` [Example 5, 8-cyclopropyl-4-[3-[2-[5-[[(3S)-4-(2,2-difluoroethyl)-3-methyl-piperazin-1-yl]methyl]-2-pyridyl]-1H-pyrrolo[2,3-b]pyridin-4-yl]-5-fluoro-2-(hydroxymethyl)phenyl]-6-fluoro-2,3-dihydro-1,4-benzoxazepin-5-one], the half-inhibitory concentration (IC50) in assay [2] was 3 nM. Still for that read-out and setting: the value for `O=C1c2c(F)cc(C3CC3)cc2OCCN1c1cc(F)cc(-c2ccnc3[nH]c(-c4ccc(CN5CCOCC5)cn4)cc23)c1CO` [Example 4, 8-cyclopropyl-6-fluoro-4-[5-fluoro-2-(hydroxymethyl)-3-[2-[5-(morpholinomethyl)-2-pyridyl]-1H-pyrrolo[2,3-b]pyridin-4-yl]phenyl]-2,3-dihydro-1,4-benzoxazepin-5-one] was 0.55 nM. On the same count and under the same terms, the value for `C[C@H]1CN(CC(F)F)CCN1Cc1ccc(-c2cc3c(-c4cc(F)cc(N5CCOc6cc(C7CC7)cc(F)c6C5=O)c4CO)ccnc3[nH]2)nc1` [Example 6, 8-cyclopropyl-4-[3-[2-[5-[[(2S)-4-(2,2-difluoroethyl)-2-methyl-piperazin-1-yl]methyl]-2-pyridyl]-1H-pyrrolo[2,3-b]pyridin-4-yl]-5-fluoro-2-(hydroxymethyl)phenyl]-6-fluoro-2,3-dihydro-1,4-benzoxazepin-5-one] was 2.7 nM. With `CC(C)(O)CN1CC=C(c2cc3c(-c4cc(F)cc(N5CCOc6cc(C7CC7)ccc6C5=O)c4CO)ccnc3[nH]2)CC1` [Example 10, 8-cyclopropyl-4-[5-fluoro-2-(hydroxymethyl)-3-[2-[1-(2-hydroxy-2-methyl-propyl)-3,6-dihydro-2H-pyridin-4-yl]-1H-pyrrolo[2,3-b]pyridin-4-yl]phenyl]-2,3-dihydro-1,4-benzoxazepin-5-one], the figures for the IC50 in assay [1] and in assay [2] were 27 nM and 4 nM, respectively.

The IC50 is the concentration at which inhibition is half-maximal.
